Reference: PubChem BioAssay AID330 (DTP/NCI, 2004)
“And” between values parts separate entries of the source, which are not always exact repeats. Equal values may be shown once. Inconclusive results and toxic doses are left out. Rule for the calls: active = survival T/C of 150% or more; inactive = T/C below 125% in these data.

System: P388 leukemia ip, CD2F1 mice, survival T/C
Assay: NCI In Vivo Anticancer Drug Screen. Data for tumor model P388 Leukemia (intraperitoneal) in CD2F1 (CDF1) mice
Details: endpoint: median survival time, higher = longer survival
How it was run: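 Mice carrying the transplanted tumor received test compound or vehicle. Survival was recorded in each group, and the value is the treated-group measurement divided by that of the vehicle-treated control group.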

[1] = dose: 50.0 mg/kg/injection, schedule: Q01DX009 (ip), vehicle: saline with Tween-80
[2] = dose: 100.0 mg/kg/injection, schedule: Q01DX009 (ip), vehicle: saline
[3] = dose: 200.0 mg/kg/injection, schedule: Q01DX009 (ip), vehicle: saline
[4] = dose: 50.0 mg/kg/injection, schedule: Q01DX009 (ip), vehicle: saline
[5] = dose: 60.0 mg/kg/injection, schedule: Q01DX005 (ip), vehicle: saline
[6] = dose: 120.0 mg/kg/injection, schedule: Q01DX005 (ip), vehicle: saline
[7] = dose: 50.0 mg/kg/injection, schedule: Q01DX005 (ip), vehicle: saline with Tween-80
[8] = dose: 100.0 mg/kg/injection, schedule: Q01DX005 (ip), vehicle: saline with Tween-80

Measured: T/C

CC1(C)[C@H](O)CC[C@]2(C)[C@@H]1CC[C@]13C=C[C@](C)(C1)[C@H](O)C[C@H]32
inactive: dose: 1.88 mg/kg/injection, schedule: Q01DX005 (ip), vehicle: Klucel (hydroxypropylcellulose) (HPC) 96 % of control | dose: 3.75 mg/kg/injection, schedule: Q01DX005 (ip), vehicle: Klucel (hydroxypropylcellulose) (HPC) 94 % of control | dose: 7.5 mg/kg/injection, schedule: Q01DX005 (ip), vehicle: Klucel (hydroxypropylcellulose) (HPC) 91 % of control | dose: 15.0 mg/kg/injection, schedule: Q01DX005 (ip), vehicle: Klucel (hydroxypropylcellulose) (HPC) 95 % of control

COc1ccc2sc3c(C)ccc(NCCN(C)C)c3c(=O)c2c1
inactive: [1] 115 % of control

CCOc1cc2c(OCc3ccccc3)cc3c4cc(OC)c(OC)cc4c[n+](C)c3c2cc1OC
inactive: dose: 3.12 mg/kg/injection, schedule: Q01DX005 (ip), vehicle: saline with Tween-80 118 % of control | dose: 6.25 mg/kg/injection, schedule: Q01DX005 (ip), vehicle: saline with Tween-80 112 % of control | dose: 12.5 mg/kg/injection, schedule: Q01DX005 (ip), vehicle: saline with Tween-80 91 % of control

CCCCCC(Cl)(CC)CCCCC
inactive: [2] 110 % of control | [3] 108 % of control | dose: 400.0 mg/kg/injection, schedule: Q01DX009 (ip), vehicle: saline 109 % of control

NC(=O)NCCSC1(SCCNC(N)=O)CCCCC1
inactive: dose: 50.0 mg/kg/injection, schedule: Q01DX009 (ip), vehicle: Klucel (hydroxypropylcellulose) (HPC) 107 % of control | dose: 100.0 mg/kg/injection, schedule: Q01DX009 (ip), vehicle: Klucel (hydroxypropylcellulose) (HPC) 103 % of control | dose: 200.0 mg/kg/injection, schedule: Q01DX009 (ip), vehicle: Klucel (hydroxypropylcellulose) (HPC) 100 % of control | dose: 400.0 mg/kg/injection, schedule: Q01DX009 (ip), vehicle: Klucel (hydroxypropylcellulose) (HPC) 99 % of control

NC(CCC(=O)NC(CSC(c1ccccc1)(c1ccccc1)c1ccccc1)C(=O)NCC(=O)O)C(=O)O (centres undefined)
inactive: dose: 60.0 mg/kg/injection, schedule: Q01DX005 (ip), vehicle: Klucel (hydroxypropylcellulose) (HPC) 101 % of control and 115 % of control | dose: 120.0 mg/kg/injection, schedule: Q01DX005 (ip), vehicle: Klucel (hydroxypropylcellulose) (HPC) 101 % of control and 113 % of control

CCCCCCCCSc1nc(Nc2cc(C(C)(C)C)c(O)c(C(C)(C)C)c2)nc(SCCCCCCCC)n1
inactive: dose: 12.5 mg/kg/injection, schedule: Q01DX009 (ip), vehicle: saline with Tween-80 105 % of control | dose: 25.0 mg/kg/injection, schedule: Q01DX009 (ip), vehicle: saline with Tween-80 104 % of control | [1] 99 % of control and 92 % of control | dose: 200.0 mg/kg/injection, schedule: Q01DX009 (ip), vehicle: saline with Tween-80 100 % of control

COc1c2ccncc2c(C)c2c1[nH]c1ccccc12
inactive: dose: 6.25 mg/kg/injection, schedule: Q04DX002 (ip), vehicle: distilled water + Tween-80 98 % of control | dose: 12.5 mg/kg/injection, schedule: Q04DX002 (ip), vehicle: distilled water + Tween-80 94 % of control | dose: 25.0 mg/kg/injection, schedule: Q04DX002 (ip), vehicle: distilled water + Tween-80 94 % of control | dose: 50.0 mg/kg/injection, schedule: Q04DX002 (ip), vehicle: distilled water + Tween-80 89 % of control | dose: 100.0 mg/kg/injection, schedule: Q04DX002 (ip), vehicle: distilled water + Tween-80 89 % of control | dose: 200.0 mg/kg/injection, schedule: Q04DX002 (ip), vehicle: distilled water + Tween-80 88 % of control

COc1c(-c2ccccc2)cc(-c2ccccc2)c(-c2ccccc2)c1-c1ccccc1
inactive: dose: 100.0 mg/kg/injection, schedule: Q04DX002 (ip), vehicle: saline with Tween-80 93 % of control | dose: 200.0 mg/kg/injection, schedule: Q04DX002 (ip), vehicle: saline with Tween-80 86 % of control | dose: 400.0 mg/kg/injection, schedule: Q04DX002 (ip), vehicle: saline with Tween-80 89 % of control

CN1CCC2=C(C1)C(c1ccccc1)c1ccccc12 (centres undefined)
inactive: dose: 33.0 mg/kg/injection, schedule: Q01DX009 (ip), vehicle: saline 107 % of control | [4] 104 % of control | dose: 75.0 mg/kg/injection, schedule: Q01DX009 (ip), vehicle: saline 107 % of control

O=C/C=C/C=O
inactive: dose: 3.13 mg/kg/injection, schedule: Q01DX001 (ip), vehicle: saline with Tween-80 102 % of control | dose: 6.25 mg/kg/injection, schedule: Q01DX001 (ip), vehicle: saline with Tween-80 102 % of control | dose: 12.5 mg/kg/injection, schedule: Q01DX001 (ip), vehicle: saline with Tween-80 102 % of control | dose: 25.0 mg/kg/injection, schedule: Q01DX001 (ip), vehicle: saline with Tween-80 114 % of control

COc1ccc(/C=N/N2CN(C(C)C(=O)O)B(NCCC(C)C)N=C2N)cc1OC (centres undefined)
inactive: [5] 104 % of control | [6] 105 % of control

CC(NC(=O)C(Cc1ccc(OC(=O)OCc2ccccc2)cc1)NC(=O)OCc1ccccc1)C(=O)OCc1ccccc1 (centres undefined)
inactive: [7] 96 % of control | [8] 92 % of control

O=c1c2ncn(C3OC(CO)C(O)C3O)c2nc2n(C3OC(CO)C(O)C3O)cnn12 (centres undefined)
inactive: [5] 109 % of control | [6] 117 % of control | dose: 240.0 mg/kg/injection, schedule: Q01DX005 (ip), vehicle: saline 122 % of control

O=c1nc2oc(-c3ccccc3)cn2c(=O)n1-c1ncc(-c2ccccc2)o1
inactive: dose: 50.0 mg/kg/injection, schedule: Q01DX005 (ip), vehicle: Klucel (hydroxypropylcellulose) (HPC) 97 % of control | dose: 100.0 mg/kg/injection, schedule: Q01DX005 (ip), vehicle: Klucel (hydroxypropylcellulose) (HPC) 100 % of control | dose: 200.0 mg/kg/injection, schedule: Q01DX005 (ip), vehicle: Klucel (hydroxypropylcellulose) (HPC) 105 % of control

CCCCCSC1=NC(c2ccc(C)cc2)(c2ccc(C)cc2)C(=O)N1
inactive: dose: 50.0 mg/kg/injection, schedule: Q01DX005 (ip), vehicle: Klucel + Tween-80 100 % of control | dose: 100.0 mg/kg/injection, schedule: Q01DX005 (ip), vehicle: Klucel + Tween-80 100 % of control | dose: 200.0 mg/kg/injection, schedule: Q01DX005 (ip), vehicle: Klucel + Tween-80 98 % of control

Cc1ccc(S(=O)(=O)N(C=O)c2ccccc2)cc1
inactive: [1] 90 % of control | dose: 100.0 mg/kg/injection, schedule: Q01DX009 (ip), vehicle: saline with Tween-80 90 % of control

COC(=O)[C@@H]1CON(Cc2ccccc2)C1CC1(C)OCCO1 (some centres undefined)
inactive: dose: 60.0 mg/kg/injection, schedule: Q01DX005 (ip), vehicle: saline with Tween-80 103 % of control | dose: 120.0 mg/kg/injection, schedule: Q01DX005 (ip), vehicle: saline with Tween-80 104 % of control | dose: 240.0 mg/kg/injection, schedule: Q01DX005 (ip), vehicle: saline with Tween-80 109 % of control

CCOC(=O)c1sc(=S)n(CC)c1C
inactive: [7] 107 % of control | [8] 99 % of control

Fc1cccc(CSC(=S)Nc2ccc(F)c(F)c2)c1
inactive: [4] 116 % of control | [2] 105 % of control | [3] 115 % of control

CC(F)C(N)C(=O)O (centres undefined)
inactive: dose: 6.25 mg/kg/injection, schedule: Q01DX009 (ip), vehicle: Klucel (hydroxypropylcellulose) (HPC) 108 % of control and 117 % of control | dose: 12.5 mg/kg/injection, schedule: Q01DX009 (ip), vehicle: Klucel (hydroxypropylcellulose) (HPC) 110 % of control and 118 % of control | dose: 25.0 mg/kg/injection, schedule: Q01DX009 (ip), vehicle: Klucel (hydroxypropylcellulose) (HPC) 116 % of control | [4] 106 % of control | [2] 124 % of control

C[C@@H]1CC[C@@]2(NC1)O[C@H]1C[C@H]3[C@@H]4CCC5=CC(=O)CC[C@]5(C)[C@H]4CC[C@]3(C)[C@H]1[C@@H]2C
inactive: dose: 15.0 mg/kg/injection, schedule: Q01DX009 (ip), vehicle: saline with Tween-80 102 % of control | dose: 30.0 mg/kg/injection, schedule: Q01DX009 (ip), vehicle: saline with Tween-80 100 % of control | dose: 60.0 mg/kg/injection, schedule: Q01DX009 (ip), vehicle: saline with Tween-80 99 % of control | dose: 120.0 mg/kg/injection, schedule: Q01DX009 (ip), vehicle: saline with Tween-80 93 % of control
